# Several values for one entry are separate records, joined by “and”; a condition that tells them apart may be missing. Identical values can stand only once.
# How the values were obtained:
# [1] = biological target: T1, porcine serum albumin (PSA) (Sus scrofa, UniProt P08835); assay: Fluorescence quenching of porcine serum albumin by mycotoxins; assay type: binding; details: for PSA logKSV ± SEM (Stern–Volmer quenching constant): PBS pH 7.4, 25 °C, albumin 2 μM, mycotoxin 0–5 μM, n = 3; for Kd: fluorescence quenching, HyperQuad fitting, PBS pH 7.4, n = 3, read-out: PSA logK ± SEM (binding constant) (converted)
# T1 construct: purchased Merck (Darmstadt, Germany)
# Experimental: (§1) Fluorescence emission spectra were collected at 25 °C using a Hitachi F-4500 fluorescence spectrophotometer (Tokyo, Japan). The quenching effects of AG, AMG, and Z14Glr (each 0–5 μM) on the emission signals of albumins (2 μM each) were examined at 340 nm in phosphate-buffered saline (PBS, pH 7.4). UV–vis measurements were performed at 25 °C in PBS, employing a Jasco V730 UV–vis spectrophotometer (Tokyo, Japan). Thereafter, we corrected the inner-filter effects of the mycotoxins, as previously reported. Stern–Volmer quenching constants (KSV; L/mol) were calculated with the graphical application of the Stern–Volmer equation [11, 29]:(1) I0/I=1+KSV×Q where I0 and I are the emission intensities of the protein without and with the quencher, respectively, while [Q] is the concentration (mol/L) of the quencher (mycotoxin). The binding constants (K; L/mol) of mycotoxin–albumin complexes were determined with nonlinear fitting, using the HyperQuad2006 software (version 3.1; Protonic Software GmbH, Hanau, Germany), as described previously.
# (§2) The interaction of a ligand molecule with albumin usually induces a decrease in the emission signal of the protein [33]; therefore, fluorescence quenching studies were performed. In PBS (pH 7.4), increasing amounts of AG, AMG, and Z14Glr were added to standard concentrations of human (HSA), bovine (BSA), porcine (PSA), or rat (RSA) serum albumins, after which the emission spectra were recorded.
# (§3) The KSV and K values of mycotoxin–albumin complexes were determined using the Stern–Volmer equation (Equation (1)) and the HyperQuad2006 software (see data in Table 1 and Table 2, respectively). […] The logKSV and logK values of the mycotoxin–albumin complexes were in good agreement (Table 1 and Table 2).
# [2] = biological target: T2, rat serum albumin (RSA) (Rattus norvegicus, UniProt P02770); assay: Fluorescence quenching of rat serum albumin by mycotoxins; assay type: binding; details: for RSA logKSV ± SEM (Stern–Volmer quenching constant): PBS pH 7.4, 25 °C, albumin 2 μM, mycotoxin 0–5 μM, n = 3; for Kd: fluorescence quenching, HyperQuad fitting, PBS pH 7.4, n = 3, read-out: RSA logK ± SEM (binding constant) (converted)
# T2 construct: purchased Merck (Darmstadt, Germany)
# Experimental: as §1, §2, §3
# [3] = Fluorescence spectroscopic study of mycotoxin-SBECD complex formation; assay type: binding; details: for SBECD logK ± SEM (binding constant): Benesi–Hildebrand, 0.05 M sodium acetate pH 5.0, mycotoxin 1 μM, n = 3; for SBECD-induced increase in the emission signal of the mycotoxin: SBECD 0–10 mM, mycotoxin 1 μM, sodium acetate pH 5.0
# Experimental: (§4) The impacts of SBECD (0–10 mM) and SGD (0–5 mM) on the emission signals of mycotoxins (1 μM each) were tested in sodium acetate buffer (0.05 M, pH 5.0). Mycotoxin–CD interactions were evaluated using the Benesi–Hildebrand equation [11, 31], assuming 1:1 stoichiometry of complex formation:(2) F0/F−F0=1/A+1/A×K×[CD] where K (L/mol) is the binding constant, F0 is the emission signal of the mycotoxin without the host molecules, F is the emission signal of the mycotoxin with CDs, A is a constant, and [CD] is the molar concentration (mol/L) of the host molecules.
# (§5) Therefore, CD-induced elevation in the fluorescence emission intensities of mycotoxins was examined.
# (§6) Based on the emission signals at 455 nm, the binding constants of ligand–CD complexes were calculated using the Benesi–Hildebrand equation (Equation (2)). Background corrections were performed in each experiment. […] Glucose and glucuronic acid are bulky, hydrophilic molecules; therefore, it is reasonable to hypothesize that these substituents make the inclusion of AG, AMG, and Z14Glr by the apolar CD cavity difficult.
# [4] = biological target: T3, human serum albumin (HSA) (Homo sapiens, UniProt P02768); assay: Ultracentrifugation study of mycotoxin-HSA binding
# T3 construct: purchased Merck (Darmstadt, Germany)
# Experimental: To confirm the data calculated based on fluorescence quenching studies, ultracentrifugation experiments were also performed. With the proper conditions of ultracentrifugation, albumin (with the bound ligands) can be sedimented. The samples (final volume: 500 μL) contained AG, AMG, or Z14Glr (5 μM each) with HSA (60 or 180 μM) dissolved in PBS. Centrifugation (16 h, 170,000× g, 20 °C) was performed using 11 × 34 mm PC tubes (Beckman Coulter, Brea, CA, US) and a Beckman Coulter Optima MAX-XP tabletop ultracentrifuge (fixed-angle rotor). The unbound fractions of mycotoxins were determined in the protein-free supernatant by HPLC-FLD (see details in Section 2.5), as previously reported. (3) K=[LA]/L×[A] where [L], [A], and [LA] are the concentrations (mol/L) of the ligand (unbound), albumin (unbound), and the ligand–albumin complex, respectively.
# Furthermore, to test the impact of environmental pH on the stability of mycotoxin–albumin complexes, the abovementioned experiments were also performed in 0.05 M sodium acetate (pH 5.0) and 0.05 M sodium borate (pH 8.5) buffers.
# To confirm the binding constants determined in the quenching experiments, and to get insight into the interaction of Z14Glr with HSA, ultracentrifugation studies were also performed. In these investigations, albumins (with the ligands bound) were sedimented, and then the concentrations of the unbound mycotoxins were quantified from the supernatants.
# [5] = system: serum albumins (HSA, BSA, PSA, RSA); assay: Fluorescence quenching, summary over the tested albumins; assay type: binding, human, bovine, porcine, rat; details: PBS pH 7.4, approximate over the albumins tested
# Experimental: as §1, §3
# [6] = biological target: T4, bovine serum albumin (BSA) (Bos taurus, UniProt P02769); assay: Fluorescence quenching of bovine serum albumin by mycotoxins; assay type: binding; details: for BSA logKSV ± SEM (Stern–Volmer quenching constant): PBS pH 7.4, 25 °C, albumin 2 μM, mycotoxin 0–5 μM, n = 3; for Kd: fluorescence quenching, HyperQuad fitting, PBS pH 7.4, n = 3, read-out: BSA logK ± SEM (binding constant) (converted)
# T4 construct: purchased Merck (Darmstadt, Germany)
# Experimental: as §1, §2, §3
# [7] = Extraction of mycotoxins from aqueous solutions with β-cyclodextrin bead polymer; details: for decrease in mycotoxin concentration (extraction) by BBP: BBP 10 mg/mL, mycotoxin 5 μM, sodium acetate buffer pH 5.0, 40 min, 25 °C; for removal of mycotoxin by BBP at pH 10.0 compared with pH 5.0: sodium borate pH 10.0 vs sodium acetate pH 5.0, mycotoxin 5 μM
# Experimental: (§7) The extraction of mycotoxins by insoluble (but water-swellable) CD bead polymers was tested in 0.05 M sodium acetate (pH 5.0) and 0.05 M sodium borate (pH 10.0) buffers. AG, AMG, alternariol, Z14Glr, and zearalenone solutions (5 μM each) were incubated with increasing amounts (0–10 mg/mL) of BBP or GBP in a thermomixer for 40 min at 1000 rpm and 25 °C. After pulse centrifugation (5000× g, 3 s), the mycotoxin contents of the supernatants were analyzed by HPLC-FLD (see Section 2.5).
# (§8) The quantitative analyses of the examined mycotoxins were performed with a Jasco HPLC system (Tokyo, Japan) equipped with a binary pump (PU-4180), an autosampler (AS 4050), and a fluorescence detector (FP-920). Chromatograms were evaluated using the ChromNAV2 software (Jasco). Alternariol and zearalenone were analyzed as described previously. During the validation of our new HPLC-FLD methods, the linearity (LIN), limit of detection (LOD), limit of quantification (LOQ), and intraday repeatability (IDR) were determined as described previously.
# (§9) AG and AMG were quantified using the following method: Isocratic elution of the samples (20 μL) was performed at room temperature with a 1 mL/min flow rate, employing phosphoric acid (1 mM) and acetonitrile (65:35 v/v%) as the mobile phase, where a Security Guard (C18, 4.0 × 3.0 mm; Phenomenex, Torrance, CA, US) precolumn was linked to a Kinetex EVO C18 (250 × 4.6 mm, 5 μm; Phenomenex) analytical column. Chromatograms were recorded, applying 335 nm and 455 nm excitation and emission wavelengths, respectively. The method validation parameters were as follows: AG (LIN: 0.2–5.0 μM, R^2 = 0.999; LOD = 0.05 μM; LOQ = 0.18 μM; IDR = 1.3%, n = 7); AMG (LIN: 0.2–5.0 μM, R^2 = 0.997; LOD = 0.15 μM; LOQ = 0.50 μM; IDR = 2.3%, n = 7).
# (§10) Z14Glr was quantified using the following method: Isocratic elution of the samples (20 μL) was performed at room temperature with a 1 mL/min flow rate, employing 1% acetic acid solution and acetonitrile (65:35 v/v%) as the mobile phase, where a Security Guard (C8, 4.0 × 3.0 mm; Phenomenex) precolumn was linked to a Mediterranea See8 (C8, 150 × 4.6 mm, 5 μm; Teknokroma, Barcelona, Spain) analytical column. Chromatograms were recorded, applying 315 nm and 465 nm excitation and emission wavelengths, respectively. The method validation parameters for the HPLC analysis of Z14Glr were also determined (LIN: 0.2–5.0 μM, R^2 = 0.999; LOD = 0.15 μM; LOQ = 0.50 μM; IDR = 2.0%, n = 7).
# [8] = biological target: T3, human serum albumin (HSA); assay: Fluorescence quenching of human serum albumin by mycotoxins; assay type: binding; details: for HSA logKSV ± SEM (Stern–Volmer quenching constant): PBS pH 7.4, 25 °C, albumin 2 μM, mycotoxin 0–5 μM, n = 3; for Kd: fluorescence quenching, HyperQuad fitting, PBS pH 7.4, n = 3, read-out: HSA logK ± SEM (binding constant) (converted)
# Experimental: as §1, §2, §3
# [9] = Extraction of mycotoxins from aqueous solutions with γ-cyclodextrin bead polymer; details: GBP 0–10 mg/mL, mycotoxin 5 μM, sodium acetate buffer pH 5.0
# Experimental: as §7, §8
# as §9, with “The method validation parameters were as follows: AG (LIN: 0.2–5.0 μM, R^2 = 0.999; LOD = 0.05 μM; LOQ = 0.18 μM; IDR = 1.3%, n = 7); AMG (LIN: 0.2–5.0 μM, R^2 = 0.997; LOD = 0.15 μM; LOQ = 0.50 μM; IDR = 2.3%, n = 7).” left out
# as §10, with “The method validation parameters for the HPLC analysis of Z14Glr were also determined (LIN: 0.2–5.0 μM, R^2 = 0.999; LOD = 0.15 μM; LOQ = 0.50 μM; IDR = 2.0%, n = 7).” left out
# [10] = Fluorescence spectroscopic study of mycotoxin-SGD complex formation; assay type: binding; details: for SGD logK ± SEM (binding constant): Benesi–Hildebrand, 0.05 M sodium acetate pH 5.0, mycotoxin 1 μM, n = 3; for SGD-induced increase in the emission signal of the mycotoxin: SGD 0–5 mM, mycotoxin 1 μM, sodium acetate pH 5.0
# Experimental: as §4, §5, §6
# [11] = 0.05 M sodium acetate pH 5.0, mycotoxin 5 μM, n = 3, read-out: HSA pH 5.0 logK ± SEM (binding constant) (converted)
# [12] = 0.05 M sodium borate pH 8.5, mycotoxin 5 μM, n = 3, read-out: HSA pH 8.5 logK ± SEM (binding constant) (converted)
# [13] = PBS pH 7.4, mycotoxin 5 μM, n = 3, read-out: HSA pH 7.4 logK ± SEM (binding constant) (converted)
# T2 sequence (P02770 25-608): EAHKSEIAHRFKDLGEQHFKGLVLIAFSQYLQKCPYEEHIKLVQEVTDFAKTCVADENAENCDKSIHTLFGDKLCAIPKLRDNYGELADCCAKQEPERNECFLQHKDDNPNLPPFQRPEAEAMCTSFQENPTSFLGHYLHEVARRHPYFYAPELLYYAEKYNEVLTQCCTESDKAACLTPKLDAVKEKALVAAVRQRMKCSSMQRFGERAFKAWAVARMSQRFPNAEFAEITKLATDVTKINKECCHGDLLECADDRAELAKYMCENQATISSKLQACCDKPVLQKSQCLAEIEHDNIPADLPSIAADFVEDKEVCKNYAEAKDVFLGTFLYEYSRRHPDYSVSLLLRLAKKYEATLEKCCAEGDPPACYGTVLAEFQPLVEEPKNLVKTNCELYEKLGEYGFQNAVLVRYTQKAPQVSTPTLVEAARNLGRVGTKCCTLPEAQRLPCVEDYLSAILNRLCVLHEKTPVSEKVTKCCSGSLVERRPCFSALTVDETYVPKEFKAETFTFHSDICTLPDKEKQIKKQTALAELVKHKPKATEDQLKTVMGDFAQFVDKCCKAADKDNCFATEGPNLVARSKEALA
# T1 sequence (P08835 25-607): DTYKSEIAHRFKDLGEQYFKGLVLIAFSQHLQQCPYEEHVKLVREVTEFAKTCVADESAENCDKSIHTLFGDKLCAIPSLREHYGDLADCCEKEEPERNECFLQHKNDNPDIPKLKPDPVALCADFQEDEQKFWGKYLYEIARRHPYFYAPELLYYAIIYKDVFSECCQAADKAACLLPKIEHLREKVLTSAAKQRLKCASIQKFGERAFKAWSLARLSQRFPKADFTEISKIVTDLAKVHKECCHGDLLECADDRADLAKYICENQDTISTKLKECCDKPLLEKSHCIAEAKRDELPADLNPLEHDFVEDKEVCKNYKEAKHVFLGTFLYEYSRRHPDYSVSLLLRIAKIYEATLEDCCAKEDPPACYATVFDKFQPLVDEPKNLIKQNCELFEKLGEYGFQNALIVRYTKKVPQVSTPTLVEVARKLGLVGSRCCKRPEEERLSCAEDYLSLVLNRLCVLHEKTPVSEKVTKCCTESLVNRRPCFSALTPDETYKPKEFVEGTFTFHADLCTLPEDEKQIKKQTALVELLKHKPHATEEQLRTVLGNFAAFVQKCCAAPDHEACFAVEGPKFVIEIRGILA
# T3 sequence (P02768 25-609): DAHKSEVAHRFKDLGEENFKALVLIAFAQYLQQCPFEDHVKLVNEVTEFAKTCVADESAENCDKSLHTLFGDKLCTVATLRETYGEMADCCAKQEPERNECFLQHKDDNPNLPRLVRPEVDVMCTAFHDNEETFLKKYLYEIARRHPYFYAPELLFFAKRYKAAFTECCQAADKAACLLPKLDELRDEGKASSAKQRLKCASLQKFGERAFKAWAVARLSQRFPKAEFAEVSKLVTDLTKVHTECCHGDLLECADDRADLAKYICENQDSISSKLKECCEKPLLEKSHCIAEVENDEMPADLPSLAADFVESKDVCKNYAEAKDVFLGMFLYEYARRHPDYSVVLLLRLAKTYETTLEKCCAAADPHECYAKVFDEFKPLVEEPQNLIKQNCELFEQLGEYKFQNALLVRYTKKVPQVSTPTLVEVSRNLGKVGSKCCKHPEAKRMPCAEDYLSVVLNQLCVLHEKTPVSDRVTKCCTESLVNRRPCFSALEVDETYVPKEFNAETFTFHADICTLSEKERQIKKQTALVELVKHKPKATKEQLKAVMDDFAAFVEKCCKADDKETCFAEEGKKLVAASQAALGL
# T4 sequence (P02769 25-607): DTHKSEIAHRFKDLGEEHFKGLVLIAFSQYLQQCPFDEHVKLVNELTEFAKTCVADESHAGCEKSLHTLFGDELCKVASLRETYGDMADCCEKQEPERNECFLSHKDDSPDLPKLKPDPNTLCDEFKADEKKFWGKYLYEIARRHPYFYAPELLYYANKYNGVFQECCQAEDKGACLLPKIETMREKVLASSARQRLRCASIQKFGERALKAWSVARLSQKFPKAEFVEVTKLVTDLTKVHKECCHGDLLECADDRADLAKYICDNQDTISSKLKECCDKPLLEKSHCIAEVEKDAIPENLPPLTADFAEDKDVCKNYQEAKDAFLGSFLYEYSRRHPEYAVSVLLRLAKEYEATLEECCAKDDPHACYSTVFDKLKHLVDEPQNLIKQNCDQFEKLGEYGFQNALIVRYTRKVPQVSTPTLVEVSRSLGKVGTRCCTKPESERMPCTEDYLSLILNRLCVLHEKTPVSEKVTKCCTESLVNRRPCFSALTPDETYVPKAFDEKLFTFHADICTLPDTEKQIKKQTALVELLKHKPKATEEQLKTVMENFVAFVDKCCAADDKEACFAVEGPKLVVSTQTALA
structure (smiles),measurement,setting,value
"Cc1cc(OC2O[C@H](CO)[C@@H](O)[C@H](O)[C@H]2O)cc2oc(=O)c3c(O)cc(O)cc3c12 (stereo partly drawn) [AG, alternariol-3-glucoside]",PSA logKSV ± SEM (Stern–Volmer quenching constant),[1],4.38 ± 0.03 L/mol
same,Kd,[1],37.2 µM
same,RSA logKSV ± SEM (Stern–Volmer quenching constant),[2],4.49 ± 0.03 L/mol
same,Kd,[2],29.5 µM
same,SBECD logK ± SEM (binding constant),[3],2.92 ± 0.05 L/mol
same,SBECD-induced increase in the emission signal of the mycotoxin,[3],threefold elevation
same,Kd,[4]; [11],33.1 µM
same,Kd,[4]; [12],39.8 µM
same,Kd,[4]; [13],57.5 µM
same,binding constant K of mycotoxin–albumin complexes,[5],≈ 3 × 10^4 L/mol
same,BSA logKSV ± SEM (Stern–Volmer quenching constant),[6],4.44 ± 0.04 L/mol
same,Kd,[6],34.7 µM
same,decrease in mycotoxin concentration (extraction) by BBP,[7],approximately 85%
same,removal of mycotoxin by BBP at pH 10.0 compared with pH 5.0,[7],significantly lower than at acidic pH
same,HSA logKSV ± SEM (Stern–Volmer quenching constant),[8],4.48 ± 0.08 L/mol
same,Kd,[8],30.2 µM
same,removal of mycotoxin by GBP,[9],strongly reduced
same,SGD logK ± SEM (binding constant),[10],3.19 ± 0.08 L/mol
same,SGD-induced increase in the emission signal of the mycotoxin,[10],approximately sevenfold increase
"COc1cc(O)c2c(=O)oc3cc(OC4O[C@H](CO)[C@@H](O)[C@H](O)[C@H]4O)cc(C)c3c2c1 (stereo partly drawn) [AMG, alternariol-9-monomethylether-3-glucoside]",PSA logKSV ± SEM (Stern–Volmer quenching constant),[1],4.27 ± 0.03 L/mol
same,Kd,[1],51.3 µM
same,RSA logKSV ± SEM (Stern–Volmer quenching constant),[2],4.62 ± 0.02 L/mol
same,Kd,[2],22.4 µM
same,SBECD logK ± SEM (binding constant),[3],2.79 ± 0.08 L/mol
same,SBECD-induced increase in the emission signal of the mycotoxin,[3],threefold elevation
same,affinity toward HSA at pH 8.5 relative to pH 5.0,[4],approximately 17 fold
same,Kd,[4]; [11],151 µM
same,Kd,[4]; [12],8.91 µM
same,Kd,[4]; [13],79.4 µM and 77.6 µM
same,binding constant K of mycotoxin–albumin complexes,[5],≈ 3 × 10^4 L/mol
same,BSA logKSV ± SEM (Stern–Volmer quenching constant),[6],4.57 ± 0.02 L/mol
same,Kd,[6],25.7 µM
same,decrease in mycotoxin concentration (extraction) by BBP,[7],~75%
same,removal of mycotoxin by BBP at pH 10.0 compared with pH 5.0,[7],did not show relevant pH dependence
same,HSA logKSV ± SEM (Stern–Volmer quenching constant),[8],4.38 ± 0.05 L/mol
same,Kd,[8],39.8 µM
same,removal of mycotoxin by GBP,[9],strongly reduced
same,SGD logK ± SEM (binding constant),[10],3.45 ± 0.04 L/mol
same,SGD-induced increase in the emission signal of the mycotoxin,[10],approximately sevenfold increase
